The values below come from patent US6960678B2, “Silanol enzyme inhibitors” (The Research Foundation of State University of New York, priority 1996, dated 2005).

Broadly, the IC90 is the point of the concentration-response curve where the effect stands at 90%. Broadly, the Ki is a measure of affinity in units of concentration, obtained from inhibition or displacement. As usually defined, the IC50 is the midpoint of a concentration-inhibition curve.

Like-named read-outs stand apart in the source and are kept apart here.

One series has as its system HIV-1 virus. In words: antiviral cell culture assay (IC90). Format: cell-based.
For another series, the target named is T1, HIV-protease enzyme (Human immunodeficiency virus type 1 group M subtype B, UniProt P04585).
T1 construct: tested against HIV-protease enzyme (Ki)
In words: HIV-protease enzyme inhibition (Ki). The format is biochemical, HIV-1.

Series [1] has as its system angiotensin-converting enzyme. Particulars: Galardy and Kortylewicz 1985; cited from earlier work.
Series [2] has as its target T2, recombinant HIV-1 protease (Human immunodeficiency virus type 1 group M subtype B, UniProt P04585).
T2 construct: recombinant HIV-1 protease
Put plainly: HIV-1 protease inhibition, cleavage of substrate polypeptide, HPLC-based detection. Format: biochemical. An excerpt:
The standard test procedure for HIV-1 protease inhibition uses recombinant HIV-1 protease in an assay which monitors cleavage of a substrate polypeptide using an HPLC-based detection system. Proc. Nat. Acad. Sci. 86, 9752 (1989).

Series [3] in a line: storage stability as solid or in solution (polymerization / oligomerization). The format is physicochemical. An excerpt:
The compounds are stable and can be stored for weeks or longer at room temperature without noticeable decomposition in either solid or solution form. In addition, there is no intrinsic toxicity associated with silicon (Friedberg, K. D. and Schiller, E., Handbook on Toxicity of Inorganic Compounds, Eds. Seiler H, G., and Sigel, H.; Marcel Dekker, New York, 1988, pp. 595-617).
The C2 symmetry of the HIV protease has led to the development of C2 symmetric inhibitors such as Merck's L-700, 417. The silanediol analog 9a was prepared from the commercially available dichlorodiphenylsilane. Treatment of this dichlorosilane with the enantiomerically pure lithium reagent 53b led to the symmetric diether 54 in 75% yield. Cleavage of the ethers and oxidation to the diacid was followed by preparation of the diamide 56. For this study, N-benzyl amides were used as the simplest first analog. Hydrolysis of diphenylsilane 56 to the silanediol 9a was effected by treatment with triflic acid in dichloromethane at 0° C. for ten to 30 minutes. Under these conditions, both phenyl groups on silicon are lost very rapidly. We believe that the intermediate formed is not a di-triflate, but is the spirocyclic intermediate 57. Addition of the triflic acid-derived intermediate to an aqueous phase (either acidic, buffered, or basic) serves to finish hydrolysis to the diol 9a. […]

[4] abbreviates: HIV-protease enzyme, read-out: Ki.

Take “Di-[1-(S)-(2,(R)-hydroxyindanyl)]2-(S)-6-(S)-dibenzyl-4,4-dihydroxy-4-sila-heptanediamide [Compound 9b]”: it took 170 nM to reach the 90% level in the series on HIV-1 virus (IC90). Also, at HIV-protease enzyme (setting [4]), the inhibition constant (Ki) was determined as 2.7 nM.

As for `C[Si](C)(O)O` [dimethylsilanediol], in series [1], the “inhibitor of angiotensin-converting enzyme” value was “inactive”. In the series with HIV-1 virus (Human immunodeficiency virus 1), `CC(C)(C)NC(=O)[C@@H]1CN(Cc2cccnc2)CCN1C[C@@H](O)C[C@@H](Cc1ccccc1)C(=O)N[C@H]1c2ccccc2C[C@H]1O` [indinavir, reference compound] yielded an IC90 of 33 nM. In other words, the double-digit nanomolar range.

Consider `O=C(NCc1ccccc1)C(Cc1ccccc1)C[Si](O)(CC(Cc1ccccc1)C(=O)NCc1ccccc1)O[Si](O)(CC(Cc1ccccc1)C(=O)NCc1ccccc1)CC(Cc1ccccc1)C(=O)NCc1ccccc1` [Compound 60, 1,3-dihydroxy-1,1,3-3-tetra(3-[2-(S)-2-phenylmethylpropionyl])-disiloxane tetra(N-phenylmethylamide)], for which the inhibition constant (Ki) at HIV-protease enzyme (setting [4]) was found to be 4670 nM. `O=C(NCc1ccccc1)C(Cc1ccccc1)C[Si]1(CC(Cc2ccccc2)C(=O)NCc2ccccc2)O[Si](CC(Cc2ccccc2)C(=O)NCc2ccccc2)(CC(Cc2ccccc2)C(=O)NCc2ccccc2)O[Si](CC(Cc2ccccc2)C(=O)NCc2ccccc2)(CC(Cc2ccccc2)C(=O)NCc2ccccc2)O[Si](CC(Cc2ccccc2)C(=O)NCc2ccccc2)(CC(Cc2ccccc2)C(=O)NCc2ccccc2)O1` [Compound 61, 1,1,3,3,5,5,7,7-octa(3-[2-(S)-2-phenylmethylpropionyl)]-cyclotetrasiloxane octa(N-phenylmethylamide)]: the Ki at HIV-protease enzyme (setting [4]) was 2300 nM. In the case of `O=C(NCc1ccccc1)[C@H](Cc1ccccc1)C[Si](O)(O)C[C@@H](Cc1ccccc1)C(=O)NCc1ccccc1` [Compound 9a, Di-benzyl 2-(S)-6-(S)-dibenzyl-4,4-dihydroxy-4-sila-heptanediamide], the IC50 in series [2] was determined as 5600 nM. Also, the affinity at HIV-protease enzyme corresponds to a Ki of 3160 nM. Further, the “storage stability of the pure diol” value in series [3] (as a solid or in deuterochloroform solution, for weeks) is “without polymerization”. Further, the “stability in DMSO” value in series [3] (taken up in DMSO, one week) was “fully stable”.
